Experimental data as given in patent US7011948B2, “Detection of ligand-antiligand complex formation by electromagnetically detectable bulk property measurement” (MDS Sciex, priority 2002, dated 2006).
Entries after “also recorded” stand apart in the source; their conditions may differ. Read-outs that look alike come from different tables or passages of the source.

How the values were obtained:
[1] = target: T1, Ribonuclease A (RNase A) (Bos taurus, UniProt P61823); assay: Multipole Coupling Spectroscopy (MCS) binding titration of CMP ligands with RNase A; settings: for binding strength to RNase A in words: summary of ITC and MCS results
T1 construct: purchased Sigma (St. Louis, Mo.) R5503
T1 sequence (P61823 27-150): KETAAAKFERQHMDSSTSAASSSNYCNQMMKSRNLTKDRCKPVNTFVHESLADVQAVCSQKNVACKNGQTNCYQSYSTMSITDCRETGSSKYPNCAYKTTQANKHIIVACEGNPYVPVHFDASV
Excerpt: Given the equation εtot=α+βL0+γg(A0,L0,KD), it can be seen that εtot is a function of L0 and KD (F(L0,KD)). εtot is a measured value and L0 is known. If KD is fixed, εtot can be predicted from L0. Then, KD can be adjusted until the predicted and measured values of εtot are as close as possible according to a nonlinear least squares analysis defined as follows: {(^1L0,^1εtot)|i=1, 2, . . . n} measurements find KD such that • Σ[^1εtot−F(^iLO,KD)]^2 is a minimum.
This formula defines the objective function for this nonlinear least squares problem. The problem is called a least squares problem because the objective function is the sum of the squares of the residuals (differences) between the measurements and the model predictions. The solution is the value of KD that minimizes the objective function. FIG. 7 depicts a plot showing an example of this objective function. There are many ways to minimize the objective function. Any standard function optimization algorithm, such as the steepest descent algorithm, can be used. Some objective function minimization methods take advantage of the particular structure of this objective function, for example the conjugate gradient method and the Levenberg-Marquardt method, and their use may be preferred in many instances. In this way, the strength of the ligand/antiligand bond can be quantified.
Materials. Ribonuclease A, (RNase A, catalogue # R5503)), cytidine 2′-monophosphate free acid (2′-CMP, catalogue # C7137), cytidine 3′-monophosphate free acid (3′-CMP, catalogue # C1133), cytidine 5′-monophosphate free acid (5′-CMP, catalogue # C1131), sodium chloride (catalogue # S7653), magnesium chloride (catalogue # M2670), Bis-Tris free base (catalogue # B7535), and Bis-Tris hydrochloride salt (catalogue # B6032) were purchased from Sigma (St. Louis, Mo.). The surfactant NP-40 (catalogue # 492015) was purchased from Calbiochem (San Diego, Calif.). These reagents were used without further purification. All solutions were prepared using milliQ water. These experiments were performed in a pH 6.0 150 mM BIS-TRIS buffer containing 10 mM sodium chloride, 10 mM magnesium chloride, and 0.005% v/v NP-40. Preparation of Sample Solutions. The protein solution was prepared by dissolving RNase A in the Bis-Tris buffer to give a final concentration of 1 mM protein; no subsequent dialysis was performed. The ligand solutions were prepared by dissolving 2′-CMP, 3′-CMP or 5′-CMP in the 1 mM RNase A solution to give a final concentration of 4 mM ligand. A series of samples which formed the basis of the ligand binding curve were prepared by mixing various ratios of the above two solutions as outlined in Table 1. Multipole Coupling Spectroscopy (MCS). […] The flow cell (a polyimide tube with an 0.0285″ I.D. and an 0.0305″ O.D. from HV Technologies, Trenton, Ga.) was mounted on the top of the coaxial resonating detector such that only the wall of the tubing separated the detector and the fluidic sample. The AFM was used to draw the fluidic samples into the detection region of the flow cell. The network analyzer settings used were S11 reflection, log magnitude, linear frequency sweep in stepped mode, 401 points, IF bandwidth of 30 Hz, power of −5 dBm, and no cable calibration was applied.
To set up the instrument to measure the data of a binding titration, the protein solution was first introduced to the flow cell of the coaxial resonating fixture and the fixture was coupled by adjusting the size of the gap until the desired reflection was achieved (approximately −30 dBm). The co-axial resonator has a sliding mechanism composed of a single dimension translation stage and a mechanical motor (Picomotor Driver from New Focus Inc., San Jose, Calif.) to adjust the gap size separating the pieces of coax such that the desired MCS reflection is achieved. Each of the remaining fluidic samples described in Table 1, below, were sequentially measured. […]

[2] = target: T2, RNase (Bos taurus, UniProt P61823); assay: Isothermal Titration Calorimetry (ITC) binding to RNase
T2 sequence (P61823 27-150): T1 sequence (P61823 27-150)
Excerpt: Table 2, below, provides the chemical structure of each of the three CMP ligands used in this experiment and a comparison of their dissociation constants (KD) binding to RNase as determined by Isothermal Titration Calorimetry (ITC) and Multipole Coupling Spectroscopy (MCS).

[3] = target: T3, RNase A (Bos taurus, UniProt P61823); assay: Refractive index binding titration of 2′CMP with RNase A; settings: 1 mM RNase; 150 mM Bis-Tris buffer pH 6; 2′CMP up to 4 mM
T3 construct: purchased Sigma
T3 sequence (P61823 27-150): T1 sequence (P61823 27-150)
Experimental: As verification of the generality of the inventive technique in bulk property situations other than the measurements involving permittivity, an experiment was carried out by measuring refractive index as the bulk property of a test solution. The binding assay used was one of the ones shown in Example 1, namely binding of RNase A to the RNase inhibitor 2′CMP. The refractometer used to measure the refractive index of the samples was a Wyatt Technologies Optilab DSP refractometer, calibrated using sodium chloride solutions as described in the manufacturer's instructions. RNase (Sigma) was dissolved in a buffer containing 150 mM Bis-Tris, 10 mM NaCl, 10 mM MgCl2, 0.005% […], pH 6, to provide 1 mM RNase. A portion of this solution was fed into the reference cell of the refractometer, and the instrument was left standing until the readout had stabilized. The test ligand, 2′CMP, was dissolved to 4 mM in a portion of the 1 mM RNase solution, and a titration was prepared to produce the following concentrations.
Samples were then loaded into the Optilab sample cell using a syringe and measured in the following order: […]
The refractometer was zeroed using a 1 mM RNase solution. […] The refractive index change relative to the reference cell was calculated using the software and plotted against the concentration of 2′CMP.

[4] = 27° C., 1 mM RNase A, pH 6.0 Bis-Tris buffer, 1.3 GHz, vs ligand concentration, read-out: KD from fit of absolute permittivity values (e′ real part of permittivity), FIG. 11A
[5] = 27° C., 1 mM RNase A, pH 6.0 Bis-Tris buffer, vs ligand-to-protein ratio, read-out: KD from fit of change in impedance (Zi, imaginary part of impedance), FIG. 11E
[6] = 27° C., 1 mM RNase A, pH 6.0 Bis-Tris buffer, vs ligand-to-protein ratio, read-out: MCS KD from fit of change in permittivity (e′ real part of permittivity), FIG. 11C
[7] = 27° C., 1 mM RNase A, pH 6.0 Bis-Tris buffer, vs ligand-to-protein ratio

| SMILES | Kd [1, 4] [µM] | Kd [1, 5] [µM] | Kd [1, 6] [µM] | binding strength to RNase A in words [1] | Kd [2] [µM] | refractive index change vs concentration plot (FIG. 12), binding detection [3] | KD from fit of absolute permittivity values (e′ real part of permittivity), FIG. 11A ([1]; 27° C., 1 mM RNase A, pH 6.0 Bis-Tris buffer, 1.3 GHz, vs ligand concentration) | KD from fit of change in impedance (Zi, imaginary part of impedance), FIG. 11E [1, 7] | MCS KD from fit of change in permittivity (e′ real part of permittivity), FIG. 11C [1, 7] | ITC KD [2] |
| --- | --- | --- | --- | --- | --- | --- | --- | --- | --- | --- |
| Nc1ccn([C@@H]2O[C@H](CO)[C@@H](OP(=O)(O)O)[C@H]2O)c(=O)n1 [3′-CMP, cytidine 3′-monophosphate free acid] | 130 | 75 | 130 | relatively weak binder | 75 |  |  |  |  |  |
| Nc1ccn([C@@H]2O[C@H](CO)[C@@H](O)[C@H]2OP(=O)(O)O)c(=O)n1 [2′-CMP, cytidine 2′-monophosphate free acid] | 10 | 11 | 10 | relatively strong binder | 6.3 | deviates significantly from linearity, indicating that binding has taken place |  |  |  |  |
| Nc1ccn([C@@H]2O[C@H](COP(=O)(O)O)[C@@H](O)[C@H]2O)c(=O)n1 [5′-CMP, cytidine 5′-monophosphate free acid] |  |  |  | unmeasurably weak |  |  | No suitable curve fit was achieved | No suitable curve fit was achieved | No suitable curve fit was achieved; also recorded: non-binding | non-binding |
